From US5726203A, “Qinghaosu derivatives against AIDS” (priority 1993, dated 1998)
Counter-ions that a name gives are not always drawn. Like-named read-outs stand apart in the source and are kept apart here.

Legend:
HIV-1 (MT4) = test: Anti-HIV effect on MT4 cells, virus antigen expression (immunoenzymatic method); type: cell-based
Text: The virus used was HIV-1 which had been obtained from Professor Montagnier of the Pastear Institute, France. The virus titer used in the experiment was 1×10^4 TCID50 /ml. The cell culture used was CEM cell line which was cultivated in the HIV laboratory of Institute of Virology, Chinese Academy of Preventive Medicine, for cultivation storage of HIV-1.
The compounds used in the experiment were qinghaosu, dihydroqinghaosu, Artesunate, Artemether, dihydroqinghaosu-methylcarbamate, dihydroqinghaosu-benzenecarbamate, qinghaosu-morpholinyl propylether maleate, dihydroqinghaosu-diethyl amino ethyl ether maleate, deoxyqinghaosu-morpholinyl ethyl ether maleate, qinghaosu-morpholinyl propanol ether maleate, qinghaosu-3,5-dimonpholinyl methyl-4-hydroxy benzyl ether maleate, dihydroqinghaosu-m-chlorobenzoate, qinghaosu-3-pyrrolidinylmethyl-4-hydroxybenzoate oxalate, and qinghaosu-3-morpholinylmethyl-4-hydroxybenzoate oxalate. […] The concentration of the original solution of these compounds were all 1 mg/ml.
(§1) a. Freshly cultured MT4 cells (5×10^5 /ml) were co-cultivated with the virus fluid (10^3 TCID50 /ml) in a CO2 incubator at 37° C. for 1-1.5 hours. RPMI 1640 complete medium (containing 10% Bovine serum and antibiotics, such as penicillin) was used to wash the unbound virus.
(§2) Complete medium was added to correct the concentration for use.
(§3) The experiment was carried out on the plates with 96 wells. 0.1 ml of the above-mentioned infected MT4 cell suspension was added into each well, and then 0.1 ml of various concentrations of the drugs were added. […] Each concentration of the drugs was added into two wells. Both the experiment group and the control group were incubated in a CO2 incubator at 37° C. The drug solution were changed 3 days later, and the following observations were carried out 6 days afterwards.
b. Observation on the growth situation of cells. Trypan blue dye was used to observe the quantity of live cells in each group.
(§4) c. Determination of the virus antigen expression. The immunoenzymatic method was used to examine the virus antigen expression. Cells from each group were separately smeared in two wells. They were fixed with cold acetone, HIV-positive serum was dropped into the wells. After incubated in a CO2 incubator at 37° C. for 30 minutes, they were washed with PBS for 3 times. Enzyme-labelled SPA was dropped into the wells. They were incubated in the same condition for 30 minutes, washed with PBS for 3 times, and then put in substrate solution to stain for 2-3 minutes, washed with distilled water, and observed under microscope. Normal cells were colorless, whereas virus-carrying cells appeared browrish red.
The mark used were as follows:
The experiment was repeated two to three times.
The concentration of the original fluid of these compounds were all 1 mg/ml. 0.1 ml was taken and added into 0.1 ml of virus-carrying cell suspension, thus the reaction concentrations were as follows: in the original fluid group, 0.1 mg/0.2 ml, i.e., 0.5 mg/ml; in 1×10^-1group, 0.05 mg/ml; in 1×10^-2 group, 0.005 mg/ml; in 1×10^-3 group, 0.0005 mg/ml, i.e., 0.5 μg/ml; and on the analogy of this.

Acute toxicity in mice = type: in vivo; settings: mouse, in vivo
Experimental: Animals: Hybrid swiss strain mice (provided by Animal House of Institute of Chinese Mateia Media, China Academy of Traditional Chinese Medicine), 20-22 grams, less than 6 weeks age of both sexes fed in laboretory for 3-5 days observation and a random taking food and drinking.
Drugs: Dihydroqinghaosu-methylcarbamate and dihydroqinghaosu-benzenecarbamate.
Above two drugs in powder form were dissolved into peanut oil. The biggest dose were 2000 mg/kg and 2161 mg/kg respectively. The distances between two dose groups were 0.7 and 0.68 respectively, with 5 dose groups each drugs.
Method: The mice were given single dose of above compound respectively intragastrically, the acute intoxication manifestrations were observed the LD value (LD5, LD50 and LD95) and B value were determined by three days mortality.

U937 HIV-1 [1] = test: Inhibition effect on HIV-1 infected U937 cells (macrophage cell line), HIV antigen test (IE); type: cell-based; settings: U937 HIV-1; 50 μg/ml
Experimental: as §1, §2, §3, §4
(§5) Furthermore, a part of the compounds according to the present invention were used to test their inhibition effect on U937 cell line (macrophage cell line)according to the methods in Experiment 1.

U937 HIV-1 [2] = test: Inhibition effect on HIV-1 infected U937 cells, activity of reverse transcriptase; type: cell-based; settings: 50 μg/ml, control 24502
Text: as §5

[3] = cited from earlier work
Plasmodium Berghei = test: Peters' four day inhibition test in mice, erythrocytic stage of Plasmodium Berghei; type: in vivo; settings: once a day D0-D3, Hybrid Kunming strain mice, read-out: SD50 (the source's name)
Text: Effect on Erythrocytic Stage of Plasmodium Berghei 1. "Four day inhibition test" in mice To determinate the SD50 with Peters' "four day inhibition test". Hybrid Kunming strain mice, body weight 18-22 g, were inculated with 1×10^7 parasites infected RBC intraperitoneally on D0. Dihydroqinghaosu-methylcarbamate, dihydroqinghaosu-butylcarbamate, dihydroqinghaosu-benzenecarbamate and dihydroqinghaosu-4-nitrobenzenecarbamate with different concentration were given once a day from D0 -D3. Blood smears from mouse's tail were made on D4, stained with Gimsa reagent and examined under microscope to count the infected and uninfected erthrocyte to get infected rate. Inhibitory rates of different dosages were calculated by following formula. The SD50 was calculated by the simplified probit analysis: [formula]

Row | Molecule | effect on HIV-1 (MT4), virus antigen expression (HIV-1 (MT4); 1 × 10^-1 (50 μg/ml)) | effect on HIV-1 (MT4), virus antigen expression (HIV-1 (MT4); 1 × 10^-2 (5 μg/ml)) | effect on HIV-1 (MT4), virus antigen expression (HIV-1 (MT4); 1 × 10^-3 (0.5 μg/ml)) | other results
1 | CO[C@H]1O[C@@H]2O[C@@]3(C)CC[C@H]4[C@H](C)CC[C@@H]([C@H]1C)[C@@]24OO3 [Artemether, reference compound] | - (positive cells were not seen in the whole well) | - (positive cells were not seen in the whole well) | ± (there were only 1-2 doubtful positive cells in whole well) | effect on HIV-1 (MT4), virus antigen expression (HIV-1 (MT4); 1 × 10^-4 (0.05 μg/ml)): + (there were 2-3 or more positive cells in the whole well); LD50 (Acute toxicity in mice; im, I.M. (Intramuscular injection)): 263 mg/kg
2 | C[C@H]1[C@H](OC(=O)CCC(=O)O)O[C@@H]2O[C@@]3(C)CC[C@H]4[C@H](C)CC[C@@H]1[C@@]24OO3 [Artesunate, reference compound] | - (positive cells were not seen in the whole well) | - (positive cells were not seen in the whole well) | - (positive cells were not seen in the whole well) | Antigen test (IE) (U937 HIV-1 [1]): - (positive cells were not seen in the whole well); effect on HIV-1 (MT4), virus antigen expression (HIV-1 (MT4); 1 × 10^-4 (0.05 μg/ml)): + (there were 2-3 or more positive cells in the whole well); Activity of reverse transcription (CPM) (U937 HIV-1 [2]): 4846 CPM; LD50 (Acute toxicity in mice; I.V. (Intravenous injection)): 769 mg/kg
3 | Nc1ccn([C@H]2CC[C@@H](CO)O2)c(=O)n1 [DDC, di-deoxycytidine] |  |  |  | toxicity to peripheral nerves ([3]; appears 6 weeks after drug administration): toxicity to peripharal nerves
4 | O=c1[nH]cnc2c1ncn2[C@H]1CC[C@@H](CO)O1 [DDI, di-deoxytrophicardyl] |  |  |  | toxicity to peripheral nerves ([3]; in vivo): toxicity to peripharal nerves
5 | C[C@H]1[C@@H](O)O[C@@H]2O[C@@]3(C)CC[C@H]4[C@H](C)CC[C@@H]1[C@@]24OO3 [Dihydroqinghaosu, dihydroqinghaosu, reference compound] | - (positive cells were not seen in the whole well) | - (positive cells were not seen in the whole well) | ± (there were only 1-2 doubtful positive cells in whole well) | effect on HIV-1 (MT4), virus antigen expression (HIV-1 (MT4); 1 × 10^-4 (0.05 μg/ml)): + (there were 2-3 or more positive cells in the whole well); LD50 (Acute toxicity in mice; po, P.O. (per os)): 765 mg/kg
6 | CC1CCC2C(C)C(OC(=O)Nc3ccc([N+](=O)[O-])cc3)OC3OC4(C)CCC1C32OO4 (stereo not shown) [Dihydroqinghaosu-4-nitrobenzenecarbamate, Dihydroqinghaosu-P-Nitrobenzenecarbamate] |  |  |  | ED50 (Plasmodium Berghei): 0.3 mg/kg
7 | CCCCNC(=O)OC1OC2OC3(C)CCC4C(C)CCC(C1C)C24OO3 (stereo not shown) [Dihydroqinghaosu-butylcarbamate, dihydroqinghaosu-butylcarbamate] |  |  |  | ED50 (Plasmodium Berghei): 0.25 mg/kg
8 | CC1CCC2C(C)C(OC(=O)c3cccc(Cl)c3)OC3OC4(C)CCC1C32OO4 (stereo not shown) [Dihydroqinghaosu-m-chlorobenzoate, dihydroqinghaosu-m-chlorobenzoate] | - (positive cells were not seen in the whole well) | - (positive cells were not seen in the whole well) | + (there were 2-3 or more positive cells in the whole well) | 
9 | C[C@@H]1CC[C@H]2[C@@H](C)C(=O)O[C@@H]3O[C@@]4(C)CC[C@@H]1[C@]32OO4 [Qinghaosu, Qinghaosu (Artemisinin)] | - (positive cells were not seen in the whole well) | - (positive cells were not seen in the whole well) | + (there were 2-3 or more positive cells in the whole well) | effect on HIV-1 (MT4), virus antigen expression (HIV-1 (MT4); 1 × 10^-4 (0.05 μg/ml)): + (there were 2-3 or more positive cells in the whole well)
10 | CCN(CC)CCOC1OC2OC3(C)CCC4C(C)CCC(C1C)C24OO3 (stereo not shown) [dihydroqinghaosu-diethyl amino ethyl ether maleate] | ± (there were only 1-2 doubtful positive cells in whole well) | + (there were 2-3 or more positive cells in the whole well) | + (there were 2-3 or more positive cells in the whole well) | 
11 | CC1CCC2C(C)C(OCc3cc(CN4CCOCC4)c(O)c(CN4CCOCC4)c3)OC3OC4(C)CCC1C32OO4.O=C(O)/C=C\C(=O)O (stereo not shown) [qinghaosu-3,5-dimonpholinyl methyl-4-hydroxy benzyl ether maleate] | + (there were 2-3 or more positive cells in the whole well) | + (there were 2-3 or more positive cells in the whole well) | + (there were 2-3 or more positive cells in the whole well) | 
12 | Deoxyquinghaosu-morpholinyl propanol ether maleate | - (positive cells were not seen in the whole well) | + (there were 2-3 or more positive cells in the whole well) | - (positive cells were not seen in the whole well) | 
13 | qinghaosu-3-morpholinylmethyl-4-hydroxybenzoate oxalate | ± (there were only 1-2 doubtful positive cells in whole well) | + (there were 2-3 or more positive cells in the whole well) | + (there were 2-3 or more positive cells in the whole well) | 
14 | qinghaosu-3-pyrrolidinylmethyl-4-hydroxybenzoate oxalate | - (positive cells were not seen in the whole well) | + (there were 2-3 or more positive cells in the whole well) | - (positive cells were not seen in the whole well) | 
15 | qinghaosu-morpholinyl propanol ether maleate | + (there were 2-3 or more positive cells in the whole well) | + (there were 2-3 or more positive cells in the whole well) | + (there were 2-3 or more positive cells in the whole well) | 
16 | qinghaosu-morpholinyl propylether maleate | - (positive cells were not seen in the whole well) | + (there were 2-3 or more positive cells in the whole well) | + (there were 2-3 or more positive cells in the whole well) | 
